The target of assay [1] is acetyl-CoA carboxylase 2 (ACC2) (Homo sapiens, UniProt O00763). In words: Human ACC2 enzyme assay, Assay A2 (HTRF ADP immunoassay).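 Further: ADP generated by ACC2 quantified via competitive time-resolved FRET between europium cryptate anti-ADP antibody and d2-tagged ADP, enzyme kept in linear range near 0.6 ng/µl.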 A general note: In TR-FRET formats the signal depends on donor and acceptor labels being close together.
For the next assay, the target named is recombinant human ACC1 (Homo sapiens, UniProt Q13085). Briefly: Human ACC1 enzyme assay, Assay A1 (HTRF ADP immunoassay).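 Further: ADP generated by the enzyme quantified via competitive time-resolved FRET, read as europium cryptate to d2 energy transfer after 1 h at 22 °C with labelled ADP tracer and anti-ADP antibody.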
The target in assay [2] is T1, human ACC1 (acetyl-coenzyme A carboxylase alpha transcript variant 1) (Homo sapiens, UniProt Q13085).
T1 construct: FLAG (C); made in house; host or cells: baculovirus-infected insect cells (Hi5)
Briefly: Human ACC1 enzyme assay, Assay B1 (ADP-Glo). It counts as biochemical.
Method: Essentially, the enzyme activity is measured by quantifying the adenosine diphosphate (ADP) formed as a byproduct of the enzyme reactions using the ADP-Glo™ detection system from Promega. In this test, initially the adenosine triphosphate (ATP) not consumed in the enzyme reaction is converted quantitatively with an adenylate cyclase (“ADP-GLO reagent”) into cAMP, the adenylate cyclase is then stopped and (“kinase detection reagent”) the ADP formed is subsequently converted into ATP, which is converted in a luciferase-based reaction into a glow luminescence signal.
The concentration of the hACC1 was adapted to the respective activity of the enzyme and adjusted such that the assay operated in the linear range. […] The amount of light emitted was taken as a measure for the amount of ADP formed and thus for the enzyme activity of the hACC1.

The target in assay [3] is human ACC2 (acetyl-coenzyme A carboxylase 2) (Homo sapiens, UniProt O00763). Briefly: Human ACC2 enzyme assay, Assay B2 (ADP-Glo).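 Further: human ACC2 activity read as ADP product, detected by luciferase glow luminescence after residual ATP removal, enzyme near 2 ng/µl in linear range, detection steps at 22 °C.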 A general note: ADP-Glo turns the ADP formed in a reaction into a luminescent signal.
human ACC2 (acetyl-coenzyme A carboxylase 2), sequence (O00763 27-2458 limits assumed): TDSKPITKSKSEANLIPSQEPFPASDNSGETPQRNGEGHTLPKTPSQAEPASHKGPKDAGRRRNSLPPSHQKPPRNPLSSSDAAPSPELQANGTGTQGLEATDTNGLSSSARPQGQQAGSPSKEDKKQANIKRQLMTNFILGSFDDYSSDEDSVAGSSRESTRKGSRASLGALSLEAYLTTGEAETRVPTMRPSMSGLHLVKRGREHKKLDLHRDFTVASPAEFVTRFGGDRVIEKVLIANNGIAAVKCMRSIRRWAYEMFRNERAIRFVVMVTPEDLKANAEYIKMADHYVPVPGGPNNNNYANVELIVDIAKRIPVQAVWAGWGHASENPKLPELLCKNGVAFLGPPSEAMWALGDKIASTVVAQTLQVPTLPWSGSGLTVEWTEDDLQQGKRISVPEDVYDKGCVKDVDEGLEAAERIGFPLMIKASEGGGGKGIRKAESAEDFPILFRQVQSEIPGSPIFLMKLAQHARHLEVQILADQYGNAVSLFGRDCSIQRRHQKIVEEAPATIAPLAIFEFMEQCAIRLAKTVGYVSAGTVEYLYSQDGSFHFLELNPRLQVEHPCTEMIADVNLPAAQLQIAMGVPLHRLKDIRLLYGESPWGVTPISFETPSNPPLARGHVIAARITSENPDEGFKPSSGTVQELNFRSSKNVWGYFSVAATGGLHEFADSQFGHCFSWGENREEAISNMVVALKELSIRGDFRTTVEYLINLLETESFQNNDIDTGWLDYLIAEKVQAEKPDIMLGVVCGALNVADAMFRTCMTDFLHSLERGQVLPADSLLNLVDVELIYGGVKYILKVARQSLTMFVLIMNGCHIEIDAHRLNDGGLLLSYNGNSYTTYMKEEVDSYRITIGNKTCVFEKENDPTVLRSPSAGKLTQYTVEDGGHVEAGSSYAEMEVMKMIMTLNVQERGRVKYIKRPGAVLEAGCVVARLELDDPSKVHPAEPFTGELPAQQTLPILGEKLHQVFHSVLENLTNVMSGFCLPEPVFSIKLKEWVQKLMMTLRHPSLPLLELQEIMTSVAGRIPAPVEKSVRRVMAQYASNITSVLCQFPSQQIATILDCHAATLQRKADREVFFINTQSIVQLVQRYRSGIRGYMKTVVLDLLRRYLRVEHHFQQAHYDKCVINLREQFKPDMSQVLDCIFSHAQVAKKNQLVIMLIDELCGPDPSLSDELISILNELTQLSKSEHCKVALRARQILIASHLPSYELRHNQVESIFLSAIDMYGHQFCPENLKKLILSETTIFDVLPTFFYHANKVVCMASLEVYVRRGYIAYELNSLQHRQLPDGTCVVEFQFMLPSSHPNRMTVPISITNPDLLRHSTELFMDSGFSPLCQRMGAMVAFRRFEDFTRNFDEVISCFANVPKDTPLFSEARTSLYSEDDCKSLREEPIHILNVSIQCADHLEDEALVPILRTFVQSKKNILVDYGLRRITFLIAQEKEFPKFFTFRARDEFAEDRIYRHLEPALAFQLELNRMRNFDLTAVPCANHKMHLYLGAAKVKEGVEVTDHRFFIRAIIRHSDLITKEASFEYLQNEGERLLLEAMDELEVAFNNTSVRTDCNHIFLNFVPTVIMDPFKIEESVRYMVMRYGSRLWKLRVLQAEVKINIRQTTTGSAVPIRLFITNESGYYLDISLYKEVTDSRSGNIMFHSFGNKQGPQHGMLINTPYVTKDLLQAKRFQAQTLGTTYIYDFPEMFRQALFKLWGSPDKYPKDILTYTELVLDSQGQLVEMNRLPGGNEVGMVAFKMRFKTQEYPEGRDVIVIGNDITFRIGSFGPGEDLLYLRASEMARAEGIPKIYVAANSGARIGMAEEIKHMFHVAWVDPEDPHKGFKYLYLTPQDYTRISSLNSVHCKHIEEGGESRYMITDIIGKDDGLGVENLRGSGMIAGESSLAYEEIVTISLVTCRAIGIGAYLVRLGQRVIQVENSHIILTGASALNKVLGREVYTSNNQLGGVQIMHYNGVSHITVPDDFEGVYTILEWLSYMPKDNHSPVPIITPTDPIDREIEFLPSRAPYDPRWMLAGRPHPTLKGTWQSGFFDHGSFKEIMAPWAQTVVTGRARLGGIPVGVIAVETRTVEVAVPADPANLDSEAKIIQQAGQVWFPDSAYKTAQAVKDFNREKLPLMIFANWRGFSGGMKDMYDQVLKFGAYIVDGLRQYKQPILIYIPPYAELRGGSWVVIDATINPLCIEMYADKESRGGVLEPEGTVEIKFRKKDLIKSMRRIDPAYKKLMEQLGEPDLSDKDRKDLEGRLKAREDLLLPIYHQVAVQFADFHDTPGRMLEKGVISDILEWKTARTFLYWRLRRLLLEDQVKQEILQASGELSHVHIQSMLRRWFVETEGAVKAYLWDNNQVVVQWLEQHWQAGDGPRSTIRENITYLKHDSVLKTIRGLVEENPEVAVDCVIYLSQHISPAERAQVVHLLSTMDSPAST
The subject of another assay is MCF7. In words: Cell proliferation assay (CellTiter-Glo, 96 h), MCF7. It counts as cell-based. The conditions noted are these: Homo sapiens. As to the method:
In accordance with the invention, the substances were tested in cell-based assays for the ability of the substances of inhibiting tumour cell proliferation after a 96-hour incubation with the substance. Cell viability was tested using the CellTiter-Glo® luminescent cell viability assay (Promega). The cells were sown at a density of 2000-5000 cells/well (depending on the cell line) in 100 μl growth medium on 96-well microtitre plates. For each cell line examined, cells were sown on a separate plate to determine the luminescence at t=0 hours and t=96 hours. After overnight incubation at 37° C., the luminescence values for the t=0 samples were determined. The dose plates for the t=96 hours points in time were treated with substances diluted with growth medium. The cells were then incubated at 37° C. for 96 hours, and the luminescence values for the t=96 hours sample were then determined. For data analysis, the t=0 values were subtracted from the t=96 hour values for treated and untreated samples. The differences in luminescence in percent between substance-treated samples and control values were used to determine the growth inhibition in percent.
The substances were tested in the following cell lines which represent the stated indications in an exemplary manner: […]
(In general: ATP-based viability assays read luminescence as a measure of living cells.)

[4] abbreviates: Assay B1, read-out: ACC 1 (=B1) IC50.
The mark [5] stands for this setting: MCF7, Table 7, 96-hour incubation.

pIC50: −log10 of the molar value. Where two headings read alike, the source gives them in different places.

This note sets out measurements from US20130040935A1, “CYCLIC KETO-ENOLS FOR THERAPY” (BAYER INTELLECTUAL PROPERTY GMBH, priority 2010, published 2013).

The pIC50 is the IC50 on a negative log10 scale, so that one unit is a factor of ten.

acetyl-CoA carboxylase 2 (ACC2), sequence (O00763 39-2458 limits assumed): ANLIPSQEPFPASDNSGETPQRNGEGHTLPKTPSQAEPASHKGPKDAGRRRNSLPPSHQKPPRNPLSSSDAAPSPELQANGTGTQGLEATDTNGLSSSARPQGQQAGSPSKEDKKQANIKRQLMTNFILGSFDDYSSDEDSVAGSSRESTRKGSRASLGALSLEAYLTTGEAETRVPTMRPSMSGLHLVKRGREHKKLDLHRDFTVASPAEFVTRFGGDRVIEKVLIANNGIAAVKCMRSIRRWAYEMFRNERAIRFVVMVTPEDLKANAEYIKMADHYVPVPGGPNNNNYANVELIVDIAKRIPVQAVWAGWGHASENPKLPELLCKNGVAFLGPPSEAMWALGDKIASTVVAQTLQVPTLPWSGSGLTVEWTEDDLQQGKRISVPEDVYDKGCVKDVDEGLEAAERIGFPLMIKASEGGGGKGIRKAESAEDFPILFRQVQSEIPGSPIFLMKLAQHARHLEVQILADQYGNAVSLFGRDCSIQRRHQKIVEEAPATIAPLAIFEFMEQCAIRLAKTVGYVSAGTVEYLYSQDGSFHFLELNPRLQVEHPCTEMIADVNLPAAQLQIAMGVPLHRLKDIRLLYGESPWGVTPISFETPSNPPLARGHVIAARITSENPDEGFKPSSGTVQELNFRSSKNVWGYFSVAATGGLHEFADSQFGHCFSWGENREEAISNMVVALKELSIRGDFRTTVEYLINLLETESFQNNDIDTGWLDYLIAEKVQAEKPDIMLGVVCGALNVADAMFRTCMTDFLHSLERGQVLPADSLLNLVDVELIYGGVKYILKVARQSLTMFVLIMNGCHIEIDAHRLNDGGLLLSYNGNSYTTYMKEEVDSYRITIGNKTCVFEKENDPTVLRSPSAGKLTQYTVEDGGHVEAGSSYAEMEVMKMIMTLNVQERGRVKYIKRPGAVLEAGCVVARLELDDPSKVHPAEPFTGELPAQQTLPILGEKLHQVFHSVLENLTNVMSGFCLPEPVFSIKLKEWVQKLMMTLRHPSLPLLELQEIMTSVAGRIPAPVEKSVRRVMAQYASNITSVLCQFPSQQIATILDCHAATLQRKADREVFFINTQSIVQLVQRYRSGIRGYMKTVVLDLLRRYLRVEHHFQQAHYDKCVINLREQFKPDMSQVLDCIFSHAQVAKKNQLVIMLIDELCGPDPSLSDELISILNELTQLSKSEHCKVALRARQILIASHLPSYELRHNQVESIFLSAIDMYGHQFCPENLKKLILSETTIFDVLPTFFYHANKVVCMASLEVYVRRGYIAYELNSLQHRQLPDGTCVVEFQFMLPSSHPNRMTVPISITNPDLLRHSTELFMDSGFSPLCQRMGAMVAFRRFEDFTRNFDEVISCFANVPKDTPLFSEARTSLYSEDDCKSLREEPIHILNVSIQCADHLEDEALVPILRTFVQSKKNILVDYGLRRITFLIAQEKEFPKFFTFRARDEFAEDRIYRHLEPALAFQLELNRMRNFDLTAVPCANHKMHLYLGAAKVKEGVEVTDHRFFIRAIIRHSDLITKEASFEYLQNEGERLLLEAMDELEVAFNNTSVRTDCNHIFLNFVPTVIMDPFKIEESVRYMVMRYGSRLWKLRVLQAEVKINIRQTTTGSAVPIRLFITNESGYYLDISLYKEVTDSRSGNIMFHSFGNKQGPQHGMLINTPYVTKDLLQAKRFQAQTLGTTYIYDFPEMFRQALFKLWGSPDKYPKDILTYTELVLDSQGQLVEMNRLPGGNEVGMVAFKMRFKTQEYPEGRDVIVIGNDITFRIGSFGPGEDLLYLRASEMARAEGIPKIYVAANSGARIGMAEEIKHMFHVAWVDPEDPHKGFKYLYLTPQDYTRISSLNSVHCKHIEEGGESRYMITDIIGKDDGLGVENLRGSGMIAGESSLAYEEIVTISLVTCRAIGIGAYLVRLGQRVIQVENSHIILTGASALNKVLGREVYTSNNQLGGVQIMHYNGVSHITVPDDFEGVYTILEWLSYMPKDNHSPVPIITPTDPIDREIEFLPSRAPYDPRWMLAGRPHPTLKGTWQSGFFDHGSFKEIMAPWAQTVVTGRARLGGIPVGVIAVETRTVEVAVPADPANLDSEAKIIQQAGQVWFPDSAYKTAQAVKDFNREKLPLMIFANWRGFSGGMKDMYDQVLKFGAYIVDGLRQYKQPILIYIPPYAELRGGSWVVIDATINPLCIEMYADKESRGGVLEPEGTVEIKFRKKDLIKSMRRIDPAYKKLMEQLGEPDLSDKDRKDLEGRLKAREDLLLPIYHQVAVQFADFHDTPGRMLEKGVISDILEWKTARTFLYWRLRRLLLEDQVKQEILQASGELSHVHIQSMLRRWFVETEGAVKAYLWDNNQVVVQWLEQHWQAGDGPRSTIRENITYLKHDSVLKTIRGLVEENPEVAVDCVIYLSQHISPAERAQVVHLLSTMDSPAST

For the compound `Cc1cc(F)c(-c2ccc(Cl)c(F)c2)cc1C1=C(O)C2(CCC(C(F)(F)F)CC2)NC1=O` (mixture of isomers) [1-94, 3-(4′-Chloro-3′,6-difluoro-4-methylbiphenyl-3-yl)-4-hydroxy-8-(trifluoromethyl)-1-azaspiro[4.5]dec-3-en-2-one], the pIC50 was 6.06 in assay [1]; 7.14 at recombinant human ACC1; 7.00 in assay [2] (setting [4]); 5.69 in assay [3]; 7.07 in the assay on MCF7 (setting [5]).

As to `Cc1cc(F)c(-c2ccc(Cl)cc2)cc1C1=C(O)C2(CCC(C(F)(F)F)CC2)NC1=O` (mixture of isomers) [1-100, 3-(4′-Chloro-6-fluoro-4-methylbiphenyl-3-yl)-4-hydroxy-8-(trifluoromethyl)-1-azaspiro[4.5]dec-3-en-2-one], the negative logarithm of the IC50 (pIC50) in assay [1] was 6.01; on recombinant human ACC1, 7.04; in assay [2], 7.02; in assay [3], 5.61; with MCF7 (setting [5]), 6.90.

With `Cc1ccc(-c2ccc(Cl)c(F)c2)cc1C1=C(O)[C@]2(CC[C@H](C(F)(F)F)CC2)NC1=O` [1-90, (5s,8s)-3-(4′-Chloro-3′-fluoro-4-methylbiphenyl-3-yl)-4-hydroxy-8-(trifluoromethyl)-1-azaspiro[4.5]dec-3-en-2-one], the negative-log IC50 (pIC50) in assay [1] is 6.48; on recombinant human ACC1, 6.84; in assay [2] (setting [4]) it was 7.20; in assay [3] it was 6.23.

On to `Cc1c(F)cc(-c2ccc(Cl)cc2)cc1C1=C(O)[C@]2(CC[C@H](C(F)(F)F)CC2)NC1=O` [1-91, (5s,8s)-3-(4′-Chloro 5 fluoro 4-methylbiphenyl-3-yl)-4-hydroxy-8-(trifluoromethyl)-1-azaspiro[4.5]dec-3-en-2-one], for which the pIC50 in assay [1] was 5.30; at recombinant human ACC1, 6.52; in assay [2] it was 6.58; in assay [3], 5.30.

Turning to `O=C1N[C@]2(CC[C@@H](C(F)(F)F)CC2)C(O)=C1c1cc(-c2ccc(Cl)c(F)c2)ccc1Cl` [1-92, (5s,8s)-3-(4,4′-Dichloro-3′-fluorobiphenyl-3-yl)-4-hydroxy-8-(trifluoromethyl)-1-azaspiro[4.5]dec-3-en-2-one], the pIC50 is 5.84 in assay [1], 6.65 at recombinant human ACC1, 7.14 in assay [2] and 5.78 in assay [3].

As to `Cc1ccc(-c2ccc(Cl)c(F)c2)c(C)c1C1=C(O)[C@]2(CC[C@H](C(F)(F)F)CC2)NC1=O` [1-93, (5s,8s)-3-(4′-Chloro-3′-fluoro-2,4-dimethylbiphenyl-3-yl)-4-hydroxy-8-(trifluoromethyl)-1-azaspiro[4.5]dec-3-en-2-one], the negative-log IC50 (pIC50) in assay [1] is 6.06; on recombinant human ACC1 it was 6.52; in assay [2] it was 6.66; in assay [3], 5.40; with MCF7 (setting [5]) it was 7.11.

Regarding `Cc1ccc(-c2ccc(Cl)cc2)c(C)c1C1=C(O)[C@]2(CC[C@H](C(F)(F)F)CC2)NC1=O` [1-95, (5s,8s)-3-(4′-Chloro-2,4-dimethylbiphenyl-3-yl)-4-hydroxy-8-(trifluoromethyl)-1-azaspiro[4.5]dec-3-en-2-one], the pIC50 was 6.41 in assay [1]; 6.42 on recombinant human ACC1; 6.42 in assay [2] (setting [4]); 5.62 in assay [3]; 7.06 in the assay with MCF7 (setting [5]).

Turning to `Cc1c(F)cc(-c2ccc(F)c(F)c2)cc1C1=C(O)[C@]2(CC[C@H](C(F)(F)F)CC2)NC1=O` [1-96, (5s,8s)-4-Hydroxy-8-(trifluoromethyl)-3-(3′,4′,5-trifluoro-4-methylbiphenyl-3-yl)-1-azaspiro[4.5]dec-3-en-2-one], the pIC50 is below 4.70 in assay [1]; 6.38 at recombinant human ACC1; 6.62 in assay [2] (setting [4]); below 4.70 in assay [3]; 6.97 in the assay with MCF7 (setting [5]).

On to `Cc1cc(C)c(-c2ccc(Cl)cc2)cc1C1=C(O)C2(CCC(C(F)(F)F)CC2)NC1=O` (centres unmarked) [1-97, 3-(4′-Chloro-4,6-dimethylbiphenyl-3-yl)-4-hydroxy-8 (trifluoromethyl)-1-azaspiro[4.5]dec-3-en-2-one], for which the pIC50 was 6.86 in assay [1]; 5.71 at recombinant human ACC1; 5.95 in assay [2]; 6.57 in assay [3]; 6.81 in the assay on MCF7 (setting [5]).

As for `Cc1cc(C)c(-c2ccc(Cl)cc2)cc1C1=C(O)[C@]2(CC[C@H](C(F)(F)F)CC2)NC1=O` [1-98, (5s,8s)-3-(4′-Chloro-4,6-dimethylbiphenyl-3-yl)-4-hydroxy-8-(trifluoromethyl)-1-azaspiro[4.5]dec-3-en-2-one], the pIC50 was 6.69 in assay [1]; 5.66 on recombinant human ACC1; 5.99 in assay [2]; 6.76 in assay [3]; 7.00 in the assay on MCF7 (setting [5]).

Turning to `O=C1N[C@]2(CC[C@@H](C(F)(F)F)CC2)C(O)=C1c1cc(-c2ccc(F)c(F)c2)ccc1Cl` [1-99, (5s,8s)-3-(4 Chloro-3′,4′-difluorobiphenyl-3-yl)-4-hydroxy-8-(trifluoromethyl)-1-azaspiro[4.5]dec-3-en-2-one], the pIC50 in assay [1] was 5.18; on recombinant human ACC1 it was 6.49; in assay [2], 6.68; in assay [3], 4.95; in the assay with MCF7 (setting [5]), 6.92.

Take `Cc1ccc(-c2ccc(F)c(F)c2)c(C)c1C1=C(O)[C@]2(CC[C@H](C(F)(F)F)CC2)NC1=O` [1-101, (5s,8s)-3-(3′,4′-Difluoro-2,4-dimethylbiphenyl-3-yl)-4-hydroxy-8-(trifluoromethyl)-1-azaspiro[4.5]dec-3-en-2-one]: the pIC50 in assay [1] was 5.22; at recombinant human ACC1, 6.34; in assay [2] it was 6.19; in assay [3], 4.98; in the assay on MCF7 (setting [5]), 6.57.

`Cc1c(F)cc(-c2ccc(Cl)c(F)c2)cc1C1=C(O)[C@]2(CC[C@H](C(F)(F)F)CC2)NC1=O` [1-102, (5s,8s)-3-(4′-Chloro-3′,5-difluoro-4-methylbiphenyl-3-yl)-4-hydroxy-8-(trifluoromethyl)-1-azaspiro[4.5]dec-3-en-2-one]: the pIC50 was 5.53 in assay [1]; 6.67 on recombinant human ACC1; 6.61 in assay [2]; 5.42 in assay [3]; 7.10 in the assay on MCF7 (setting [5]).

`CO[C@H]1CC[C@]2(CC1)NC(=O)C(c1c(C)ccc(-c3ccc(Cl)cc3)c1C)=C2O` [1-121, (5s,8s)-3-(4′-Chloro-2,4-dimethylbiphenyl-3-yl)-4-hydroxy-8-methoxy-1-azaspiro[4.5]dec-3-en-2-one]: the pIC50 at recombinant human ACC1 was 6.40; in assay [2] it was 6.76; in assay [3], 6.00; in the assay with MCF7 (setting [5]), 6.63.

`O=C1NC2(CCCCC2)C(O)=C1c1cc(-c2ccc(Cl)cc2)ccc1Cl` [1-140, 3-(4,4′-Dichlorobiphenyl-3-yl)-4-hydroxy-1-azaspiro[4.5]dec-3-en-2-one]: the pIC50 is 5.82 in assay [1], 6.49 at recombinant human ACC1 and 7.14 with MCF7 (setting [5]).

As to `Cc1ccc(-c2ccc(F)c(F)c2)cc1C1=C(O)[C@]2(CC[C@H](C)CC2)NC1=O` [1-145, (5s,8s)-3-(3′,4′-Difluoro-4-methylbiphenyl-3-yl)-4-hydroxy-8-methyl-1-azaspiro[4.5]dec-3-en-2-one], the results for the pIC50 (in assay [1]; at recombinant human ACC1; in the assay with MCF7 (setting [5])) were 5.48, 6.71 and 6.56, respectively.

In the case of `Cc1ccc(-c2ccc(Cl)cc2)cc1C1=C(O)C2(CCCCC2)CNC1=O` [9-3, 4-(4′-chloro-4-methylbiphenyl-3-yl)-5-hydroxy-2-azaspiro[5.5]undec-4-en-3-one], the pIC50 in assay [2] (setting [4]) is 5.63; in assay [3] it was below 4.70; in the assay on MCF7 (MCF7 cells), 5.82.

As for `Cc1ccc(-c2ccc(Cl)c(Cl)c2)cc1-c1c(O)c2ccc(Cl)cc2[nH]c1=O` [9-7, 7-chloro-3-(3′,4′-dichloro-4-methyl-biphenyl-3-yl)-4-hydroxyquinolin-2(1H)-one], the pIC50 in assay [2] (setting [4]) is 6.51; in assay [3] it was 4.95; in the assay on MCF7 (MCF7 cells), 5.96.

Regarding `Cc1ccc(-c2ccc(Cl)cc2)cc1-c1c(O)c2ccc(Cl)cc2[nH]c1=O` [9-11, 7-chloro-3-(4′-chloro-4-methylbiphenyl-3-yl)-4-hydroxyquinolin-2(1H)-one], the pIC50 in assay [2] (setting [4]) was 6.40; in assay [3] (read-out: ACC 2 (=B2) IC50, Assay B2), 5.39; in the assay on MCF7 (MCF7 cells), 6.52.

Consider `Cc1ccc(-c2ccc(Cl)cc2)cc1C1=C(O)C(C)(C)C(C)(C)NC1=O` [9-14, 3-(4′-chloro-4-methylbiphenyl-3-yl)-4-hydroxy-5,5,6,6-tetramethyl-5,6-dihydropyridin-2(1H)-one], for which the pIC50 is 5.19 in assay [2] (setting [4]), below 4.70 in assay [3] and 5.84 in the assay with MCF7 (MCF7 cells).

Take `CCc1cc(C)cc(Br)c1C1=C(O)C2(CCCCC2)NC1=O` [V-4, reference compound]: the results for the pIC50 (in assay [1]; at recombinant human ACC1) were below 4.70 and 5.27, respectively.
